Assay [1] deals with NK cells. In words: Intracellular ATP concentration in NK cells, luciferase-based assay (CellTiter-Glo 2.0). The assay is classed as cell-based. The conditions noted are these: Homo sapiens; isolated NK cells, 30,000 cells per well, pyruvate 0.01 to 10mM, 4 hours; read-out: EC50 for the intracellular ATP production (the pyruvate concentration at which the ATP production is half-maximal). On the procedure:
(§1) Peripheral blood samples from healthy subjects were obtained from the French blood bank (Etablissement Français du sang, Lyon, France).
(§2) Human PBMCs were separated from peripheral blood by Ficoll® gradient centrifugation (Eurobio Laboratoires & AbCys) at room temperature. The PBMCs were kept at 4°C in complete medium overnight.
NK cells (CD56^Dim CD3) were isolated using an NK Cell Isolation Kit (Miltenyi Biotec) following the manufacturer's instructions, and then sorted (BD FACS ARIA II, purity > 99%, the following mAbs from eBioscience, BD Biosciences, Biolegend or Cell Signalling Technology were used: anti-CD56 (NCAM16.2), and anti-CD3 (UCHT1)). Freshly sorted NK cells were left to recover from the sorting overnight at 37°C with a non-activating dose of IL-15 (1 ng/ml, Peprotech) in RPMI 1640 medium additionally containing 10% FBS, 2mM HEPES, 2mM glutamine, 1mM pyruvate (sodium pyruvate) and 1% penicillin/streptomycin (HCL Technologies). […]
The intracellular ATP concentration at each concentration of pyruvate was measured using a luciferase-based assay following the manufacturer's instructions (CellTiter-Glo® 2.0 Cell Viability Assay and NAD/NADH-Glo Assay, Promega Corporation, Madison, WI). Luminescence was measured using a Tristar luminometer (Berthold).
(In general: In ATP-based viability assays light output follows the ATP content of the culture.)

Assay [2] relates to NK cells. Description: Cytotoxicity of NK cells against K562 NanoLuc-expressing target cells (bioluminescence lysis assay). It is filed as cell-based. The conditions noted are these: Homo sapiens; pyruvate 0.01 to 10 mM for 3 hours, then co-cultured for 4 hours with K562 NanoLuc-expressing target cells; read-out: EC50 for the cytotoxicity of the NK cells (the pyruvate concentration at which the cytotoxicity is half-maximal). As to the method: as §1, §2
NK cells (CD56^Dim CD3) were isolated using an NK Cell Isolation Kit (Miltenyi Biotec) following the manufacturer's instructions, and then sorted (BD FACS ARIA II, purity > 99%, the following mAbs from eBioscience, BD Biosciences, Biolegend or Cell Signalling Technology were used: anti-CD56 (NCAM16.2), and anti-CD3 (UCHT1)). […]
NK cells were prepared as in Example 1, and were cultured in the absence or in the presence of pyruvate at varying concentrations (0.01 to 10 mM) for 3 hours and then co-cultured for 4 hours with K562 NanoLuc®-expressing target cells. The supernatant was collected and bioluminescence was measured using a Tristar Instrument luminometer (Berthold) after addition of Furimazin (the substrate of NanoLuc). The percentage of cell lysis were calculated as explained in Hayek, S. et al., SLAS Discov. […]

Regarding `CC(=O)C(=O)O` [pyruvate], the EC50 in the assay with NK cells [1] was determined as 500 µM; with NK cells [2], 260 µM.

The values above are taken from EP4567103A1, “USE OF PYRUVATE FOR POTENTIATING NK CELLS” (LVMH Recherche, priority 2023, dated 2025).
